Reference: patent publication US20240182867A1, “CHEMICAL REPROGRAMMING OF HUMAN SOMATIC CELLS INTO PLURIPOTENT CELLS” (Peking University, priority 2021, published 2024)
Counter-ions that a name gives are not always drawn.

Key:
human somatic cells [1] = experiment: Replacement of small molecules by others targeting the same pathway; format: cell-based; conditions: for replacement of ABT 869: receptor tyrosine kinase inhibitor; for replacement of IWP-2: Wnt inhibitor
Procedure: VPA (500 μM), Tranylcypromine (10 μM), DZNep (0.05 μM), and EPZ004777 (5 μM) were included in the first 4 days. In several experiments, to testing the reprogramming efficiency after removing each small molecules, the indicated small molecules were removed from the cocktails.

human fibroblasts = experiment: Conversion of human fibroblasts into monolayer epithelial-like cells; format: cell-based; conditions: added into the combination CHIR99021, 616452 and TTNPB
Procedure: KnockOut™ DMEM (Gibco, 10829018) supplemented with 10% Knockout Serum Replacement (KSR) (Gibco, 10828028), 10% FBS, 1% GlutaMAX™, 1% NEAA, 1% Penicillin-Streptomycin, 0.055 mM 2-mercaptoethanol, 50 μg/ml L-Ascorbic acid 2-phosphate (Vc2P) (Sigma, A8960), 5 mM LiCl (Sigma, L4408), 1 mM Nicotinamide (NAM) (Sigma, 72340), 2 mg/mL AlbuMAX™-II (Gibco, 11021045) and the small molecules CHIR999021 (10 μM), 616452 (10 μM), TTNPB (2 μM), SAG (0.5 μM), ABT-869 (1 μM), Rock inhibitor (Y-27632 (2 μM) or Tzv (2 μM))
(§1) Cells were maintained at 37° C. with 21% 02 and 5% CO2. The induction medium was changed every 3-4 days. HEFs were seeded at a density of 1-1.5×10^4 cells per well of a 12-well plate in 15%. FBS-DMEM medium. Change the medium into stage I induction medium on the next day. For stage I induction, single layer epithelial-like cells would emerge at day 4-6 and approach 80%-100% confluence at day 8-12, then change the medium into stage II induction medium. For stage II induction, multi-layered colonies appeared after 8-12 days treatment and these cell colonies would continually grow larger. After totally 16-20 days' stage II treatment, change the medium into stage III condition. For stage III induction, 8-12 days treatment of stage III medium is required and then change the medium into stage IV condition. For stage IV induction, VPA (500 μM) was included in the first 4 days. Primary hCiPSC colonies would emerge after 6-8 days' treatment. At the end of stage IV, immunofluorescent staining of co-expression of OCT4 and NANOG was used to confirm the generation of primary hCiPSC colonies. Primary hCiPSC colony number was calculated as the number of the compact OCT4 positive colonies. Reprogramming efficiency was calculated as the number of primary hCiPSC colonies divided by the number of input HEFs.

human somatic cells [2] = experiment: Reprogramming efficiency with supplemental inhibitors; format: cell-based; conditions: inhibitor added to induction medium
Procedure: KnockOut™ DMEM supplemented with 10% KSR, 10% FBS, 1% GlutaMAX™, 1% NEAA, 0.055 mM 2-mercaptoethanol, 1% Penicillin-Streptomycin, 50 μg/ml Vc2p, 5 mM LiCl, 1 mM NAM, 100 ng/ml bFGF (Origene) and the small molecules CHIR99021 (10-12 μM), 616452 (10 μM), TTNPB (2 μM), SAG (0.5 μM), ABT-869 (1 μM), Y-27632 (10 μM), JNKIN8 (1 μM), Tranylcypromine (2 μM), 5-Azacytidine (5 μM), UNC0224 (1 μM), Ruxolitinib (1 μM), BIRB796 (2 μM), Dorsormorphin (0.5-1 μM). To enhance the reprogramming efficiency, the CBP/p300 bromodomain inhibitor SGC-CBP30 (2 μM) and Menin-MLL interaction inhibitor VTP50469 were introduced in stage II induction medium.
In several experiments, to testing the reprogramming efficiency after regulate each small molecules, the indicated small molecules were removed from the cocktails. The concentration of the small molecules used to targeting the same pathway or targets were indicated as follow: GSK3 inhibitors (CHIR99021: 3-15 μM; TD114-2: 0.5-2 μM; CHIR98014: 1-3 μM; GSK3βi XV: 0.05-0.2 μM); TGFβ inhibitors (A8301: 0.2-5 μM; SB431542: 2-50 μM; 616452: 10 μM); RA pathway agonists (TTNPB: 0.2-10 μM; Ch55: 1-10 μM; AM580: 0.1-1 μM); Rock inhibitors (Y27632: 2-15 μM; Fasudil: 2-10 μM; HA1100: 2-10 μM; TZV: 2-10 μM); Smoothened agonists (SAG: 0.2-2 μM; Purmorphamine: 0.5-2 μM; Hg-Ag1.5: 0.5-1 μM; Human shh: 20-200 μM); histone demethylation inhibitors (Tranylcypromine: 2-50 μM; GSK2879: 0.02-2 μM; LSD-C76: 0.2-5 μM; S2101: 0.5-5 μM; LSD-2D: 0.2-5 μM; RN-1: 0.2-5 μM); DNMT inhibitors (5-azaC: 2-15 μM; Decitabine: 0.5-10 μM; RG108: 0.5-10 μM); JNK inhibitors (JNK-in-8: 0.2-2 μM; JNK-in-5: 0.5-1 μM; JNK-in-7: 0.2-2 μM; JNK-in-12: 0.2-0.5 μM); CBP/p300 bromodomain inhibitor (SGC-CBP30: 0.5-2 μM; I-CBP112: 0.5-5 μM; GNE272: 0.5-5μM; GNE409:0.5-5μM); Menin-MLL interaction inhibitor (VTP50469: 0.5-2μM; MI3454: 0.5-2μM; WDR5-IN-4: 0.5-2μM). […]

LIN28A = experiment: Withdrawing individual chemicals from stage I: LIN28A expression; format: cell-based, human; conditions: compound removed from stage I condition
Procedure: (§2) In several experiments, to testing the reprogramming efficiency after removing each small molecules, the indicated small molecules were removed from the cocktails. The concentration of the small molecules used to regulate the same pathway or targets were indicated as follow: GSK3 inhibitors (CHIR99021: 3-15 μM; TD114-2: 0.5-2 μM; CHIR98014: 1-3 μM; GSK3βi XV: 0.05-0.2 μM); RA pathway agonists (TTNPB: 0.5-10 μM; […] AM580: 0.1-1 μM); Rock inhibitors (TZV: 2-10 μM; Y27632: 2-15 μM; Fasudil: 2-10 μM; HA1100: 2-10 μM); TGFβ inhibitors ([…]: 0.1-5 μM; SB431542: 2-50 μM; LY364947: 0.5 μM; LY21: 0.5 μM; 616452: 10 μM). […] The data were analyzed using the delta-delta Ct method. GAPDH was used as a control to normalize the expression of target genes.

[3] = tested on: fibroblast marker genes (somatic program); experiment: Withdrawing individual chemicals from stage I: fibroblast marker genes; format: cell-based, human; conditions: compound removed from stage I condition
Procedure: as §2

human somatic cells [4] = experiment: hCiPSC colonies at the end of reprogramming after withdrawing individual chemicals from stage I or II; format: cell-based; conditions: factor removed
Procedure: as §1
In several experiments, to testing the reprogramming efficiency after removing each small molecules, the indicated small molecules were removed from the cocktails. The concentration of the small molecules used to regulate the same pathway or targets were indicated as follow: GSK3 inhibitors (CHIR99021: 3-15 μM; TD114-2: 0.5-2 μM; CHIR98014: 1-3 μM; GSK3βi XV: 0.05-0.2 μM); RA pathway agonists (TTNPB: 0.5-10 μM; Ch55: 1-5 μM; AM580: 0.1-1 μM); Rock inhibitors (TZV: 2-10 μM; Y27632: 2-15 μM; Fasudil: 2-10 μM; HA1100: 2-10 μM); TGFβ inhibitors (A8301: 0.1-5 μM; SB431542: 2-50 μM; LY364947: 0.5 μM; LY21: 0.5 μM; 616452: 10 μM).
In several experiments, to testing the reprogramming efficiency after regulate each small molecules, the indicated small molecules were removed from the cocktails. The concentration of the small molecules used to targeting the same pathway or targets were indicated as follow: GSK3 inhibitors (CHIR99021: 3-15 μM; TD114-2: 0.5-2 μM; CHIR98014: 1-3 μM; GSK3βi XV: 0.05-0.2 μM); TGFβ inhibitors (A8301: 0.2-5 μM; SB431542: 2-50 μM; 616452: 10 μM); RA pathway agonists (TTNPB: 0.2-10 μM; Ch55: 1-10 μM; AM580: 0.1-1 μM); Rock inhibitors (Y27632: 2-15 μM; Fasudil: 2-10 μM; HA1100: 2-10 μM; TZV: 2-10 μM); Smoothened agonists (SAG: 0.2-2 μM; Purmorphamine: 0.5-2 μM; Hg-Ag1.5: 0.5-1 μM; Human shh: 20-200 μM); histone demethylation inhibitors (Tranylcypromine: 2-50 μM; GSK2879: 0.02-2 μM; LSD-C76: 0.2-5 μM; S2101: 0.5-5 μM; LSD-2D: 0.2-5 μM; RN-1: 0.2-5 μM); DNMT inhibitors (5-azaC: 2-15 μM; Decitabine: 0.5-10 μM; RG108: 0.5-10 μM); JNK inhibitors (JNK-in-8: 0.2-2 μM; JNK-in-5: 0.5-1 μM; JNK-in-7: 0.2-2 μM; JNK-in-12: 0.2-0.5 μM); CBP/p300 bromodomain inhibitor (SGC-CBP30: 0.5-2 μM; I-CBP112: 0.5-5 μM; GNE272: 0.5-5μM; GNE409:0.5-5μM); Menin-MLL interaction inhibitor (VTP50469: 0.5-2μM; MI3454: 0.5-2μM; WDR5-IN-4: 0.5-2μM).

SMILES: Clc1ccc(Nc2nnc(Cc3ccncc3)c3ccccc23)cc1 [Valatanib]
- replacement of ABT 869 (human somatic cells [1]): able to replace ABT 869

SMILES: C[C@@H](N)[C@H]1CC[C@H](C(=O)Nc2ccncc2)CC1 [Y27632, (+)-(R)-trans-4-(1-aminoethyl)-N-(4-pyridyl)cyclohexanecarboxamide+++dihydrochloride]
- generation of the epithelial-like cells (human fibroblasts): can facilitate

SMILES: CCC(=O)N1CCOc2c(cc(-c3ccc(OC)c(OC)c3)cc2OC[C@H]2CCCN(C)C2)C1 [I-CBP112]
- reprogramming efficiency (human somatic cells [2]): can improve

SMILES: Cc1cc(-c2ccc(CC(=O)Nc3ccc(-c4cccnc4)cc3)cc2)ccn1 [WNT-C59, 4-(2-Methyl-4-pyridinyl)-N-[4-(3-pyridinyl)phenyl]benzeneacetamide]
- replacement of IWP-2 (human somatic cells [1]): able to replace IWP-2

SMILES: Cc1cnc(-c2cnc(NCCNc3ccc(C#N)cn3)nc2-c2ccc(Cl)cc2Cl)[nH]1 [CHIR99021, 6-[[2-[[4-(2,4-Dichlorophenyl)-5-(5-methyl-1H-imidazol-2-yl)-2-pyrimidinyl]amino]ethyl]amino]-3-pyridinecarbonitrile]
- LIN28A activation (LIN28A): severely reduced
- downregulation of the somatic program [3]: inhibited
- generation of hCiPSCs (human somatic cells [4]): greatly impaired

SMILES: Cc1ccc(F)c(NC(=O)Nc2ccc(-c3cccc4[nH]nc(N)c34)cc2)c1 [ABT869, N-[4-(3-amino-1H-indazol-4-yl)phenyl]-N′-(2-fluoro-5-methylphenyl)-urea]
- generation of the epithelial-like cells (human fibroblasts): can facilitate

SMILES: C/C(=C\c1ccc(C(=O)O)cc1)c1ccc2c(c1)C(C)(C)CCC2(C)C [TTNPB, 4-[(E)-2-(5,6,7,8-Tetrahydro-5,5,8,8-tetramethyl-2-naphthalenyl)-1-propenyl]benzoic acid]
- LIN28A activation (LIN28A): severely reduced
- downregulation of the somatic program [3]: inhibited
- generation of hCiPSCs (human somatic cells [4]): greatly impaired

SMILES: COc1ccc(CCc2nc3cc(-c4c(C)noc4C)ccc3n2C[C@H](C)N2CCOCC2)cc1Cl [SGC-CBP30, 2-[2-(3-chloro-4-methoxyphenyl)ethyl]-5-(3,5-dimethyl-4-isoxazolyl)-1-[(2S)-2-(4-morpholinyl)propyl]-1H-benzimidazole]
- reprogramming efficiency (human somatic cells [2]): can improve

SMILES: O=c1[nH]c(-c2ccc(C(F)(F)F)cc2)nc2c1CSCC2 [XAV-939, 3,5,7,8-Tetrahydro-2-[4-(trifluoromethyl)phenyl]-4H-thiopyrano[4,3-d]pyrimidin-4-one]
- replacement of IWP-2 (human somatic cells [1]): able to replace IWP-2

SMILES: O=C(Nc1cccc2cccnc12)c1ccc(N2C(=O)[C@@H]3[C@H](C2=O)[C@@H]2C=C[C@H]3C2)cc1 [IWR-1]
- replacement of IWP-2 (human somatic cells [1]): able to replace IWP-2

SMILES: Cc1cccc(-c2n[nH]cc2-c2ccc3ncccc3n2)n1 [compound 616452, 2-(3-(6-Methylpyridin-2-yl)-1H-pyrazol-4-yl)-1,5-naphthyridine]
- LIN28A activation (LIN28A): severely reduced
- downregulation of the somatic program [3]: inhibited
- generation of hCiPSCs (human somatic cells [4]): greatly impaired

SMILES: COc1cc2ncc(-c3ccccc3)nc2cc1OC [AG1296, 6,7-Dimethoxy-3-phenylquinoxaline]
- replacement of ABT 869 (human somatic cells [1]): able to replace ABT 869

SMILES: CC(=O)N1CCc2c(c(Nc3ccc(-c4cnn(C)c4)cc3F)nn2[C@H]2CCOC2)C1 [GNE272]
- reprogramming efficiency (human somatic cells [2]): can improve

SMILES: CNC1CCC(N(Cc2cccc(-c3ccncc3)c2)C(=O)c2sc3ccccc3c2Cl)CC1 (centres unmarked) [SAG]
- generation of the epithelial-like cells (human fibroblasts): can facilitate
